Experiment [1] concerns the target T1, cGMP-dependent protein kinase 1 (Homo sapiens) (UniProt Q13976).
T1 sequence (whole entry): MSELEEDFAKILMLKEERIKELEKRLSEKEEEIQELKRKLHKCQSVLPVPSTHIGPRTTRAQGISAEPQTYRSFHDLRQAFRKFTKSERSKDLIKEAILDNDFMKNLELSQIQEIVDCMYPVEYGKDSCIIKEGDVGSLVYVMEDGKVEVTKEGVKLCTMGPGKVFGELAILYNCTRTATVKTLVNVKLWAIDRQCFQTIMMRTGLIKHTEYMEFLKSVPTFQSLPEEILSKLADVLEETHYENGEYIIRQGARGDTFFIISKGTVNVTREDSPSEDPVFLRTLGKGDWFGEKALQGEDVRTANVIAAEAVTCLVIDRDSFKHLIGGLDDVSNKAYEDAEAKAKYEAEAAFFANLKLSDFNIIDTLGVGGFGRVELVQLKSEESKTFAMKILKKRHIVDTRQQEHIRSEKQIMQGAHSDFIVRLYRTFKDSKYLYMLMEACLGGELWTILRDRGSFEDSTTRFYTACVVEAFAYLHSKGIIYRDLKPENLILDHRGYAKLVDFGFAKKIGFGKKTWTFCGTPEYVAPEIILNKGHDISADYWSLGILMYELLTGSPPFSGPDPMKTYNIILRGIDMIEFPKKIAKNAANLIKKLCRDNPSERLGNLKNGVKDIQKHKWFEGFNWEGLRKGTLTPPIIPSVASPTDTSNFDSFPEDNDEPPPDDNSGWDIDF
Description: PKG1alpha (h) Eurofins kinase panel. Conditions: Compound concentration 1.0 uM.

Experiment [2] concerns the target Serine/threonine-protein kinase SIK1 (Homo sapiens) (UniProt P57059). Description: SIK(h) Eurofins kinase panel. Conditions: Compound concentration 1.0 uM.
Experiment [3] concerns the target Death-associated protein kinase 3 (Homo sapiens) (UniProt O43293). The experiment can be described thus: ZIPK(h) Eurofins kinase panel. Conditions: Compound concentration 1.0 uM.
Experiment [4] concerns the target Ribosomal protein S6 kinase alpha-4 (Homo sapiens) (UniProt O75676). The experiment can be described thus: MSK2(h) Eurofins kinase panel. The conditions noted are these: Compound concentration 1.0 uM.
Experiment [5] deals with T2, Serine/threonine-protein kinase 3 (Homo sapiens) (UniProt Q13188).
T2 sequence (whole entry): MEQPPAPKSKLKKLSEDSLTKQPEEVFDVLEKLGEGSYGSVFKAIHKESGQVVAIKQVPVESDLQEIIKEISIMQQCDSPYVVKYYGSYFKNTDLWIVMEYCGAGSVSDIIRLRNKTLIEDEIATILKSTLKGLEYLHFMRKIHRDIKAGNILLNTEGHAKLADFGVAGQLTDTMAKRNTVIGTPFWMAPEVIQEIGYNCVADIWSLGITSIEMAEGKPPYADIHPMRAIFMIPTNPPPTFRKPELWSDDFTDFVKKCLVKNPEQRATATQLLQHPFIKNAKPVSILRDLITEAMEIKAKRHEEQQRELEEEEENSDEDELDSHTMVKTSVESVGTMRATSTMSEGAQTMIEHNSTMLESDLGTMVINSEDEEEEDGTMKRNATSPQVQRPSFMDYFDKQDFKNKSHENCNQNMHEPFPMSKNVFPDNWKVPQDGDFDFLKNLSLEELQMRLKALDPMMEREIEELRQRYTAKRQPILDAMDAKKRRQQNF
The experiment can be described thus: MST2(h) Eurofins kinase panel. The conditions noted are these: Compound concentration 1.0 uM.

For experiment [6], the target named is Protein-tyrosine kinase 6 (Homo sapiens) (UniProt Q13882). Description: BRK(h) Eurofins kinase panel. Conditions: Compound concentration 1.0 uM.
A further experiment concerns SW780. Description: SW780 cell line Proliferation assay. Type of experiment: functional, Homo sapiens. Conditions: time 3 day.
Experiment [7] concerns the target T3, Testis-specific serine/threonine-protein kinase 3 (Homo sapiens) (UniProt Q96PN8).
T3 sequence (whole entry): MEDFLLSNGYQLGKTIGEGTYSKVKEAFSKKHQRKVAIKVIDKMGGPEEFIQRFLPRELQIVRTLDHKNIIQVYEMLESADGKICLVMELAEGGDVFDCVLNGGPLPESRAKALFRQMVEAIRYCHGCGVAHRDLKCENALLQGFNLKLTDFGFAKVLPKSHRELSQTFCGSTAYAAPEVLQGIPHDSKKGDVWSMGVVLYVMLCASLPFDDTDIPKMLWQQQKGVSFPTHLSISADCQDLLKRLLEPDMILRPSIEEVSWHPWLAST
The experiment can be described thus: TSSK3(h) Eurofins kinase panel. The conditions noted are these: Compound concentration 1.0 uM.

The target of experiment [8] is T4, Serine/threonine-protein kinase 17A (Homo sapiens) (UniProt Q9UEE5).
T4 sequence (whole entry): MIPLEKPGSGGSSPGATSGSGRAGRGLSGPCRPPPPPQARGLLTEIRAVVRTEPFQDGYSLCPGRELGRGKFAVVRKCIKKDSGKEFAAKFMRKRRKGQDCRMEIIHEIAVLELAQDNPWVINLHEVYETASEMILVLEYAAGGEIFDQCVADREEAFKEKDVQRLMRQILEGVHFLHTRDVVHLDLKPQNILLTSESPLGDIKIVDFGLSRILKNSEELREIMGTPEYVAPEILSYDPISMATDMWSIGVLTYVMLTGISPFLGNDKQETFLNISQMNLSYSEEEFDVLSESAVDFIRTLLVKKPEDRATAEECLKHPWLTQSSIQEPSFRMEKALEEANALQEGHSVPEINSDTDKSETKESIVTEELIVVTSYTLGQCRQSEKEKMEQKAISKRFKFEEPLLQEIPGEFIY
Description: DRAK1(h) Eurofins kinase panel. Conditions: Compound concentration 1.0 uM.

The target of experiment [9] is Tyrosine-protein kinase Yes (Homo sapiens) (UniProt P07947). Description: Yes(h) Eurofins kinase panel. The conditions noted are these: Compound concentration 1.0 uM.
The target in experiment [10] is Calcium/calmodulin-dependent protein kinase type 1D (Homo sapiens) (UniProt Q8IU85). Description: CaMKIdelta(h) Eurofins kinase panel. The conditions noted are these: Compound concentration 1.0 uM.
Experiment [11] concerns the target Protein kinase C delta type (Homo sapiens) (UniProt Q05655). Description: PKCdelta (h) Eurofins kinase panel. The conditions noted are these: Compound concentration 1.0 uM.

1 compound from ChEMBL document CHEMBL4507319 (2021) can be followed below.

Serine/threonine-protein kinase SIK1 (Homo sapiens), sequence (P57059 whole entry): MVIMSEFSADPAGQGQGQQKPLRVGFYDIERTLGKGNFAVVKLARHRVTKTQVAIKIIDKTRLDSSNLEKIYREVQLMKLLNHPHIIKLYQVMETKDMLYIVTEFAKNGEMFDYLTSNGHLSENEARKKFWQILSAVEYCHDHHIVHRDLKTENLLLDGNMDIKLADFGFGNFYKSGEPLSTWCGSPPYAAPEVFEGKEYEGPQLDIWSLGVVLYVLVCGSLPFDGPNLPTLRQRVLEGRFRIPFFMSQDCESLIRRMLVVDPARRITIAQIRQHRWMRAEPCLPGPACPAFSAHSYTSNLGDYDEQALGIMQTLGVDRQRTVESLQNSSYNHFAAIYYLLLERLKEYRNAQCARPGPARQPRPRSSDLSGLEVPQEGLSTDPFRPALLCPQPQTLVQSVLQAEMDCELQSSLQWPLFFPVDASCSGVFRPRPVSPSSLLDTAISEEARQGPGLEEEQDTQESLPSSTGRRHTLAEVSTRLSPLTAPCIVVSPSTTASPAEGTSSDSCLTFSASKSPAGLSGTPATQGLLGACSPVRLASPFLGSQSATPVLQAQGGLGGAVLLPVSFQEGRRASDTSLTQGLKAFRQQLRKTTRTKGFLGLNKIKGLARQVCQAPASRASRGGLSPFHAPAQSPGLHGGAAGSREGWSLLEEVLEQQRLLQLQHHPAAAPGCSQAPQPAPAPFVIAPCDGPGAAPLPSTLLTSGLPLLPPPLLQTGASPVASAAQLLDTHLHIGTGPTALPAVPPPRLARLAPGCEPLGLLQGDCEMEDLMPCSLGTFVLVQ
Tyrosine-protein kinase Yes (Homo sapiens), sequence (P07947 2-543 limits assumed): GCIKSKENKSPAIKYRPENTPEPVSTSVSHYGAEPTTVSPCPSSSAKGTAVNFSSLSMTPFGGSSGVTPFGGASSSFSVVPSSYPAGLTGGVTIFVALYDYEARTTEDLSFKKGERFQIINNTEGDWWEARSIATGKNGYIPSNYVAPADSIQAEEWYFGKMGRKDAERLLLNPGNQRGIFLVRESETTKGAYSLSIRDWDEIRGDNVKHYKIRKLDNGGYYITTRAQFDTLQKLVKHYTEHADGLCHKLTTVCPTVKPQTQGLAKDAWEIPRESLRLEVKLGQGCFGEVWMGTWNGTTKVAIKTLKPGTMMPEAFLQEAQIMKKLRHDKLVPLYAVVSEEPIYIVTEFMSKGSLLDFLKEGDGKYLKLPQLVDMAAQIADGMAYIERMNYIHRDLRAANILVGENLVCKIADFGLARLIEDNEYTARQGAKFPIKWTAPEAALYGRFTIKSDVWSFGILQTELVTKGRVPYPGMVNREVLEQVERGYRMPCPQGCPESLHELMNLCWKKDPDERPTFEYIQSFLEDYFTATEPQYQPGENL
Protein-tyrosine kinase 6 (Homo sapiens), sequence (Q13882 whole entry, looked up): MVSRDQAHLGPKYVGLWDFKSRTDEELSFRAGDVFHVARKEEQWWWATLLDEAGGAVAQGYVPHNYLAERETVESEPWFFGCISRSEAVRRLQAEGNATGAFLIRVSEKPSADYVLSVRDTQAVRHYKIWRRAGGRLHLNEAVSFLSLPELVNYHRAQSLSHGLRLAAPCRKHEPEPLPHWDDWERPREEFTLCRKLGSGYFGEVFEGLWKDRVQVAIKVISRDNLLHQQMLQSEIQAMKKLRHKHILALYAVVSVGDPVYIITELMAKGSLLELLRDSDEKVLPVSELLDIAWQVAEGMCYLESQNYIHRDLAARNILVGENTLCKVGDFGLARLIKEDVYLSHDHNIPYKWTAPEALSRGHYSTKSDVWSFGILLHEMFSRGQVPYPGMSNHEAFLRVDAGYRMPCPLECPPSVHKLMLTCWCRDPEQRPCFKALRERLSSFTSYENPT
Calcium/calmodulin-dependent protein kinase type 1D (Homo sapiens), sequence (Q8IU85 whole entry, looked up): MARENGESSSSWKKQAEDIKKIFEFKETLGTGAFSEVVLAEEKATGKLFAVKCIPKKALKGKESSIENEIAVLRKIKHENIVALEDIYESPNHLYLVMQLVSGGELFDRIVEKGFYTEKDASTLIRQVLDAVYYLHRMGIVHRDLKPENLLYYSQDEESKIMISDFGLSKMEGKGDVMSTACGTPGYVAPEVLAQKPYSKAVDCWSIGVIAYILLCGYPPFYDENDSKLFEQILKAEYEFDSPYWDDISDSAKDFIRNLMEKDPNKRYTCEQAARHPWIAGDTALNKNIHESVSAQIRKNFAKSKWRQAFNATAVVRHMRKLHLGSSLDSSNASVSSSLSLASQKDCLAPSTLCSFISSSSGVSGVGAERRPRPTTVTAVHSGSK
Ribosomal protein S6 kinase alpha-4 (Homo sapiens), sequence (O75676 whole entry, looked up): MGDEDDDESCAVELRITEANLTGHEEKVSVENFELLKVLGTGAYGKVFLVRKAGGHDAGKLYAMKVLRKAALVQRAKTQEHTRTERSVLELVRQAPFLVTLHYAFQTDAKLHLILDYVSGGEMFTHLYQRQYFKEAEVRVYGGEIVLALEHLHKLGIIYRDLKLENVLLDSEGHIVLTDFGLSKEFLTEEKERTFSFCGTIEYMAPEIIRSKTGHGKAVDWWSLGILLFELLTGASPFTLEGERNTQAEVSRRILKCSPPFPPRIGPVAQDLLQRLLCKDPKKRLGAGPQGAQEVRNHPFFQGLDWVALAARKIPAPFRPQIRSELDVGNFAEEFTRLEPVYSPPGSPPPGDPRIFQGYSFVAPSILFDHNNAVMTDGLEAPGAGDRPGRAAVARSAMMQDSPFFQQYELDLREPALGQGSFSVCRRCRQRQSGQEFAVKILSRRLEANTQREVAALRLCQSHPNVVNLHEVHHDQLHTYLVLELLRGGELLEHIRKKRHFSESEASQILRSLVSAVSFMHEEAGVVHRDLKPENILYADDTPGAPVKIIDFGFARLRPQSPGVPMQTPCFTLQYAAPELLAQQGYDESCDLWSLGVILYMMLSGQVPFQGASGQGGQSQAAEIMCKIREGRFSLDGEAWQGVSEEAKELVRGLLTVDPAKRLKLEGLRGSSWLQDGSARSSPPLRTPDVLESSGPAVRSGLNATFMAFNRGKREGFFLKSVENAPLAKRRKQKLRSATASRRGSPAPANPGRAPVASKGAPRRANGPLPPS
Protein kinase C delta type (Homo sapiens), sequence (Q05655 whole entry, looked up): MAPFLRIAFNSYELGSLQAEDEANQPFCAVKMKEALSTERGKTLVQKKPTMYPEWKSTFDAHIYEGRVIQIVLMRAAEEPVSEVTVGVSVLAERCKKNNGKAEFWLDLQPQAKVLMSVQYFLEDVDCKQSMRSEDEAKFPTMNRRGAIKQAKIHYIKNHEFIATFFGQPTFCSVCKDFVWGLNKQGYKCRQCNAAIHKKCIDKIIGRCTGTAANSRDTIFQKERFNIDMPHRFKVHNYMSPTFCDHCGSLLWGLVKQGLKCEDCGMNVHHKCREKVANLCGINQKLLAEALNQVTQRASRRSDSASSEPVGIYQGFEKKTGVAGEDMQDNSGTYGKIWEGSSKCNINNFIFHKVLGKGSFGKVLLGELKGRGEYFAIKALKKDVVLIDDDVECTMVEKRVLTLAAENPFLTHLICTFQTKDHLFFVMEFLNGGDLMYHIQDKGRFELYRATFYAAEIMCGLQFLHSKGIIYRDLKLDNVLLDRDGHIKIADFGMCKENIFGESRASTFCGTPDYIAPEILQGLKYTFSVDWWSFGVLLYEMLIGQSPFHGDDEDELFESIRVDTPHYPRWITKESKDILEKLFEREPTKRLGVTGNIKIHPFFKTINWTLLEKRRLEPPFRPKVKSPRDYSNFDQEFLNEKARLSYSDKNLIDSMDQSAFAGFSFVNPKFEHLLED
Death-associated protein kinase 3 (Homo sapiens), sequence (O43293 whole entry, looked up): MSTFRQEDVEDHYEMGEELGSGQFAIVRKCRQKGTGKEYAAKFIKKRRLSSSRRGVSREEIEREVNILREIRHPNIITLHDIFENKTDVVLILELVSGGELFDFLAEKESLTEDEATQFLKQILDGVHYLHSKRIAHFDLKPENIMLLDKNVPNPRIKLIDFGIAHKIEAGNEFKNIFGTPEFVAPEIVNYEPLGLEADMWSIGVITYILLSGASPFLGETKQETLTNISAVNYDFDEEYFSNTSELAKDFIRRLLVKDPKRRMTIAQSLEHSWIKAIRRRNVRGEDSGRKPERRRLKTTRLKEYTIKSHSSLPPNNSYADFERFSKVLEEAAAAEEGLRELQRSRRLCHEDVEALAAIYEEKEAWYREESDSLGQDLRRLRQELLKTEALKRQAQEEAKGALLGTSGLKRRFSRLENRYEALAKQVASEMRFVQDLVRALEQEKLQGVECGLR

Turning to `CCc1ccccc1C(=O)Nc1n[nH]c2c(C)c(F)c(C3C(C#N)=C(C)N(C)C(C)=C3C#N)cc12` [BAY-3827], the % residual kinase activity in experiment [1] was 68%; in experiment [2] it was 86%; in experiment [3] it was 91%; in [4], 27%; in experiment [5] it was 47%; in [6], 104%. Besides, the % residual kinase activity in [7] is 110%; in experiment [8] it was 119%; in [9], 90%; in experiment [10], 104%; in [11], 69%. Further, the “Cell Proliferation IC50” value in the experiment on SW780 came to 10.3 µM.
